Data as given in ChEMBL document CHEMBL2010683, “Discovery of the first small molecule inhibitor of human DDX3 specifically designed to target the RNA binding site: towards the next generation HIV-1 inhibitors” (Bioorg Med Chem Lett, 2012).

Key:
[1] = Inhibition of Hepatitis C virus NS3 helicase expressed in Escherichia coli assessed as conversion of a 6-FAM-labeled double stranded RNA in to single stranded nucleic acid by laser scanning densitometric analysis; design: species or system Hepacivirus hominis
[2] = target: T1, ATP-dependent RNA helicase DDX3X (Homo sapiens, UniProt O00571); assay: Inhibition of human recombinant DDX3 helicase activity expressed in Escherichia coli assessed as conversion of a 6-FAM-labeled double stranded RNA in to single stranded nucleic acid by laser scanning densitometric analysis
Target sequence in this assay (O00571 whole entry): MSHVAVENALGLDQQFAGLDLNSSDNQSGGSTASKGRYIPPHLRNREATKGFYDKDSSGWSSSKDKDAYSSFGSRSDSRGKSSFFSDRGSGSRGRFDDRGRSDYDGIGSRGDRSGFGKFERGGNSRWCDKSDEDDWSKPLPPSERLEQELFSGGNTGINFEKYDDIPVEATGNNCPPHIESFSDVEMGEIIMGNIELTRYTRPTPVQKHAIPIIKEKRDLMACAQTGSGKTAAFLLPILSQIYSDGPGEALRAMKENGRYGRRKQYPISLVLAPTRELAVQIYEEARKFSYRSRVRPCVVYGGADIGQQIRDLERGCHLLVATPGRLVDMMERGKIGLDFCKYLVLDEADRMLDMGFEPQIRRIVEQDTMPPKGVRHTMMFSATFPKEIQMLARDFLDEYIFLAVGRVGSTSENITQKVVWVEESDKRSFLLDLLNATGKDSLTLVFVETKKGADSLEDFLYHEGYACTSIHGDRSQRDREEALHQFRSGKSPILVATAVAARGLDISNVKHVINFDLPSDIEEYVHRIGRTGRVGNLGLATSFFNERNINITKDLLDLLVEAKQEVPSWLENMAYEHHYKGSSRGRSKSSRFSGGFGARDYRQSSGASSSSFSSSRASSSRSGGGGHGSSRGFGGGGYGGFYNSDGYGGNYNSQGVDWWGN

[3] = target: T2, ATP-dependent RNA helicase DDX1 (Homo sapiens, UniProt Q92499); assay: Inhibition of human recombinant DDX1 helicase activity expressed in Escherichia coli assessed as conversion of a 6-FAM-labeled double stranded RNA in to single stranded nucleic acid by laser scanning densitometric analysis
T2 sequence (Q92499 whole entry): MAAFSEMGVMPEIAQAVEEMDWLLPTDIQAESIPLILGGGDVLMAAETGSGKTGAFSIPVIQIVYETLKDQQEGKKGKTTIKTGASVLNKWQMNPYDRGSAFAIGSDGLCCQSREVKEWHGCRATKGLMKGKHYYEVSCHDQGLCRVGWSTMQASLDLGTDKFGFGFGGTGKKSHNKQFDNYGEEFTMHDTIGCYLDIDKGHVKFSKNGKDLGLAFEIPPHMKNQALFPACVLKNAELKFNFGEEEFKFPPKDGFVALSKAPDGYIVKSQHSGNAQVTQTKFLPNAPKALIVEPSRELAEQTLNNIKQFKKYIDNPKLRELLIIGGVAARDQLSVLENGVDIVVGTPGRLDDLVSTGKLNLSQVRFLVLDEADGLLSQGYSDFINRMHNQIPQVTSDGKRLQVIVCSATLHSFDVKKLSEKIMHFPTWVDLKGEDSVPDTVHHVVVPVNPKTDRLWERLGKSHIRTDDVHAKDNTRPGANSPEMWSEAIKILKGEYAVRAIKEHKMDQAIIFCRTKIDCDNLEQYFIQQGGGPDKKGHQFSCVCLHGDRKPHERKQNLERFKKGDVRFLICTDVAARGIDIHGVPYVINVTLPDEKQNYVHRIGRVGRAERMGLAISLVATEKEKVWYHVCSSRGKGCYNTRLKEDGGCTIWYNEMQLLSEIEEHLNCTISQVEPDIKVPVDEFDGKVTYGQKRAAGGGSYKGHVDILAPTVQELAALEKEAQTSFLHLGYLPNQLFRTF

[4] = target: T1, ATP-dependent RNA helicase DDX3X; assay: Inhibition of human recombinant DDX3 ATPase activity expressed in Escherichia coli assessed as [gamma-32P] ATP hydrolysis after 5 mins by densitometric analysis
Target sequence in this assay (O00571 whole entry): as the sequence (O00571 whole entry) above

[5] = target: T1, ATP-dependent RNA helicase DDX3X
Target sequence in this assay (O00571 2-662 limits assumed): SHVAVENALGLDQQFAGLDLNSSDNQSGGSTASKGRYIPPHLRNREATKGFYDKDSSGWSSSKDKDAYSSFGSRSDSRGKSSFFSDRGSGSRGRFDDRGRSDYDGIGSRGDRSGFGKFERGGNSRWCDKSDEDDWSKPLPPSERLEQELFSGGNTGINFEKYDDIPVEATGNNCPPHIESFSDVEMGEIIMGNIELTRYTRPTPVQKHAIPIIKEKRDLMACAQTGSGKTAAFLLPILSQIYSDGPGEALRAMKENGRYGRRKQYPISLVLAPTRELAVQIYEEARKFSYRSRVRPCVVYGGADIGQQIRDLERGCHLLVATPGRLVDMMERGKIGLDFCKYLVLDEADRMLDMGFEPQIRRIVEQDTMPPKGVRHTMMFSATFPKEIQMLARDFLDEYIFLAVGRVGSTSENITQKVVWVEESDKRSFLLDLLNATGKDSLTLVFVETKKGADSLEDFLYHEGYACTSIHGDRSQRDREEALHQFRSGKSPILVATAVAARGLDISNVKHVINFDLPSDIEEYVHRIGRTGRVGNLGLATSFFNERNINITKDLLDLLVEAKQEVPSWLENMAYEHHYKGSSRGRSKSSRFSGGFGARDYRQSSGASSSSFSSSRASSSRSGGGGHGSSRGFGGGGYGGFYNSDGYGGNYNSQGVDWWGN
Description: Competitive inhibition of human recombinant DDX3 expressed in Escherichia coli using 50 nM double strand 18/36mer RNA substrate by PAGE analysis

[6] = target: T1, ATP-dependent RNA helicase DDX3X; remark: listed apart in the source
Target sequence in this assay (O00571 2-662 limits assumed): as above
Description: Competitive inhibition of human recombinant DDX3 expressed in Escherichia coli using 100 nM double strand 18/36mer RNA substrate by PAGE analysis

[7] = tested on: Human immunodeficiency virus 1; assay: Antiviral activity against multidrug-resistant HIV1 infected in phytohemagglutininin-P stimulated human PBMC cells assessed as inhibition of viral replication after 72 hrs post infection; assay type: functional, organism-based; conditions: Human immunodeficiency virus 1, PBMC
[8] = Selectivity ratio of CC50 for human PBMC cells to EC50 for multidrug-resistant HIV1 infected in phytohemagglutininin-P-stimulated human PBMC cells; assay type: ADME, cell-based; conditions: read-out: Ratio CC50/EC50
[9] = Cytotoxicity against human PBMC cells assessed as cell viability after 72 hrs by MTS assay; assay type: cell-based
[10] = target: T1, ATP-dependent RNA helicase DDX3X; remark: listed apart in the source
Target sequence in this assay (O00571 2-662 limits assumed): as above
Description: Competitive inhibition of human recombinant DDX3 expressed in Escherichia coli using 25 nM double strand 18/36mer RNA substrate by PAGE analysis

Row | SMILES | IC50 [1] [µM] | IC50 [2] [µM] | IC50 [3] [µM] | IC50 [4] [µM] | ID50 [5] [µM] | ID50 [6] [µM] | EC50 [7] [µM] | selectivity ratio [8] | CC50 at 72 h [9] [µM] | ID50 [10] [µM]
1 | O=C(Nc1ccc(-c2nc3ccccc3[nH]2)cc1)c1cc2ccccc2o1 | > 500 | 42 | > 500 | > 1000 | – | – | – | – | – | –
2 | Cc1ccccc1NC(=O)Nc1cccc(N)c1 | > 500 | 5 | > 500 | 40 | 435 | 950 | 15 | 10 | 100 | 4.5
3 | Cc1ccccc1NC(=O)Nc1cccc(NC(=O)Nc2ccccc2C)c1 | > 500 | 65 | > 500 | 17 | – | – | – | – | – | –
4 | Nc1cccc(NC(=O)Nc2cccc(N)c2)c1 | > 500 | – | > 500 | > 1000 | – | – | – | – | – | –
5 | Cc1[nH]c2ccccc2c1C1=CC(c2ccccc2)=NN=C(c2ccccc2)C1 | > 500 | 6 | > 500 | > 1000 | – | – | – | – | – | –
6 | O=C(Nc1cccc([N+](=O)[O-])c1)Nc1cccc([N+](=O)[O-])c1 | > 500 | – | > 500 | > 1000 | – | – | – | – | – | –
7 | Cc1ccccc1NC(=O)Nc1cccc([N+](=O)[O-])c1 | > 500 | – | > 500 | 20 | – | – | 10 | 10 | 100 | –
